Results as given in ChEMBL document CHEMBL2434921, “New synthetic aliphatic sulfonamido-quaternary ammonium salts as anticancer chemotherapeutic agents” (2013).
Calls of active or inactive are those of the source. The calls are words filed in the database; no cut-off is given here.

What was measured:
[1] = test system: NCI-H23; assay: Growth inhibition of human NCI-H23 cells after 48 hrs by SRB assay; format: functional; settings: NCI-H23, 48 h
[2] = test system: HCT-15; assay: Growth inhibition of human HCT15 cells after 48 hrs by SRB assay; format: functional; settings: HCT-15, 48 h
[3] = target: Rho-related GTP-binding protein RhoB (Homo sapiens) (UniProt P62745); assay: Transactivation of RhoB (unknown origin) transfected in human HeLa cells at 5 uM measured over 10 secs by dual luciferase reporter gene assay; format: cell-based
Chain of Rho-related GTP-binding protein RhoB (Homo sapiens) (P62745 whole entry): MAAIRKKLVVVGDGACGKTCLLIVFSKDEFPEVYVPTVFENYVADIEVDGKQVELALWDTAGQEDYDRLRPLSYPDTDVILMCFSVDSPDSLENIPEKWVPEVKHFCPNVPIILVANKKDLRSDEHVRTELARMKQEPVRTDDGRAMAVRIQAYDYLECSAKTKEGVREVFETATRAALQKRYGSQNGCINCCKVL

[4] = test system: NUGC-3; assay: Growth inhibition of human NUGC3 cells after 48 hrs by SRB assay; format: functional; settings: NUGC-3, 48 h
[5] = test system: ACHN; assay: Growth inhibition of human ACHN cells after 48 hrs by SRB assay; format: functional
[6] = test system: MDA-MB-231; assay: Growth inhibition of human MDA-MB-231 cells after 48 hrs by SRB assay; format: functional; settings: MDA-MB-231, 48 h
[7] = test system: PC-3; assay: Growth inhibition of human PC3 cells after 48 hrs by SRB assay; format: functional; settings: PC-3, 48 h
[8] = test system: PC-3; assay: Growth of human PC3 cells at 10 uM after 48 hrs by SRB assay; settings: PC-3, 48 h
[9] = test system: NUGC-3; assay: Growth of human NUGC3 cells at 1 uM after 48 hrs by SRB assay; settings: NUGC-3, 48 h
[10] = test system: ACHN; assay: Growth of human ACHN cells at 10 uM after 48 hrs by SRB assay
[11] = test system: HCT-15; assay: Growth of human HCT15 cells at 3 uM after 48 hrs by SRB assay; settings: HCT-15, 48 h
[12] = test system: ACHN; assay: Growth of human ACHN cells at 0.1 uM after 48 hrs by SRB assay
[13] = test system: ACHN; assay: Growth of human ACHN cells at 0.3 uM after 48 hrs by SRB assay
[14] = test system: NUGC-3; assay: Growth of human NUGC3 cells at 0.1 uM after 48 hrs by SRB assay; settings: NUGC-3, 48 h
[15] = test system: NUGC-3; assay: Growth of human NUGC3 cells at 0.3 uM after 48 hrs by SRB assay; settings: NUGC-3, 48 h
[16] = test system: HCT-15; assay: Growth of human HCT15 cells at 0.3 uM after 48 hrs by SRB assay; settings: HCT-15, 48 h
[17] = test system: NCI-H23; assay: Growth of human NCI-H23 cells at 10 uM after 48 hrs by SRB assay; settings: NCI-H23, 48 h
[18] = test system: NCI-H23; assay: Growth of human NCI-H23 cells at 0.3 uM after 48 hrs by SRB assay; settings: NCI-H23, 48 h
[19] = test system: MDA-MB-231; assay: Growth of human MDA-MB-231 cells at 1 uM after 48 hrs by SRB assay; settings: MDA-MB-231, 48 h
[20] = test system: MDA-MB-231; assay: Growth of human MDA-MB-231 cells at 10 uM after 48 hrs by SRB assay; settings: MDA-MB-231, 48 h
[21] = test system: MDA-MB-231; assay: Growth of human MDA-MB-231 cells at 0.1 uM after 48 hrs by SRB assay; settings: MDA-MB-231, 48 h
[22] = test system: MDA-MB-231; assay: Growth of human MDA-MB-231 cells at 3 uM after 48 hrs by SRB assay; values are per cent of control; settings: MDA-MB-231, 48 h
[23] = test system: PC-3; assay: Growth inhibition of human PC3 cells at 1 uM after 48 hrs by SRB assay; values are per cent of control; settings: PC-3, 48 h
[24] = test system: PC-3; assay: Growth inhibition of human PC3 cells at 3 uM after 48 hrs by SRB assay; values are per cent of control; settings: PC-3, 48 h
[25] = test system: ACHN; assay: Growth inhibition of human ACHN cells at 3 uM after 48 hrs by SRB assay; values are per cent of control
[26] = test system: ACHN; assay: Growth inhibition of human ACHN cells at 1 uM after 48 hrs by SRB assay; values are per cent of control
[27] = test system: NUGC-3; assay: Growth inhibition of human NUGC3 cells at 3 uM after 48 hrs by SRB assay; values are per cent of control; settings: NUGC-3, 48 h
[28] = test system: PC-3; assay: Growth inhibition of human PC3 cells at 0.1 uM after 48 hrs by SRB assay; values are per cent of control; settings: PC-3, 48 h
[29] = test system: PC-3; assay: Growth inhibition of human PC3 cells at 0.3 uM after 48 hrs by SRB assay; values are per cent of control; settings: PC-3, 48 h
[30] = test system: HCT-15; assay: Growth inhibition of human HCT15 cells at 1 uM after 48 hrs by SRB assay; values are per cent of control; settings: HCT-15, 48 h
[31] = test system: NUGC-3; assay: Growth inhibition of human NUGC3 cells at 10 uM after 48 hrs by SRB assay; values are per cent of control; settings: NUGC-3, 48 h
[32] = test system: HCT-15; assay: Growth inhibition of human HCT15 cells at 10 uM after 48 hrs by SRB assay; values are per cent of control; settings: HCT-15, 48 h
[33] = test system: NCI-H23; assay: Growth inhibition of human NCI-H23 cells at 1 uM after 48 hrs by SRB assay; values are per cent of control; settings: NCI-H23, 48 h
[34] = test system: NCI-H23; assay: Growth inhibition of human NCI-H23 cells at 3 uM after 48 hrs by SRB assay; values are per cent of control; settings: NCI-H23, 48 h
[35] = test system: HCT-15; assay: Growth inhibition of human HCT15 cells at 0.1 uM after 48 hrs by SRB assay; values are per cent of control; settings: HCT-15, 48 h
[36] = test system: NCI-H23; assay: Growth inhibition of human NCI-H23 cells at 0.1 uM after 48 hrs by SRB assay; values are per cent of control; settings: NCI-H23, 48 h
[37] = test system: MDA-MB-231; assay: Growth inhibition of human MDA-MB-231 cells at 0.3 uM after 48 hrs by SRB assay; values are per cent of control; settings: MDA-MB-231, 48 h

## CCCCCCCCCCCCCCS(=O)(=O)N(C)CCC[N+](C)(C)C
[1]
  GI50: 210 nM
[2]
  GI50: 680 nM
[3]
  Activity: Active
[4]
  GI50: 150 nM
[5]
  GI50: 1010 nM
[6]
  GI50: 1260 nM
[7]
  GI50: 300 nM
[8]
  growth, % of control at 10 µM: -17.4%
[9]
  growth, % of control at 1 µM: 22.7%
[10]
  growth, % of control at 10 µM: 27.1%
[11]
  growth, % of control at 3 µM: 29.9%
[12]
  growth, % of control at 0.1 µM: 85.3%
[13]
  growth, % of control at 0.3 µM: 93.4%
[14]
  growth, % of control at 0.1 µM: 83.9%
[15]
  growth, % of control at 0.3 µM: 42.8%
[16]
  growth, % of control at 0.3 µM: 87.9%
[17]
  growth, % of control at 10 µM: -50.6%
[18]
  growth, % of control at 0.3 µM: 70.6%
[19]
  growth, % of control at 1 µM: 66.6%
[20]
  growth, % of control at 10 µM: 23.5%
[21]
  growth, % of control at 0.1 µM: 102%
[22]
  growth, % of control at 3 µM: 42.1%
[23]
  growth, % of control at 1 µM: 18.6%
[24]
  growth, % of control at 3 µM: -0.1%
[25]
  growth, % of control at 3 µM: 37.8%
[26]
  growth, % of control at 1 µM: 57.2%
[27]
  growth, % of control at 3 µM: 8.5%
[28]
  growth, % of control at 0.1 µM: 97.1%
[29]
  growth, % of control at 0.3 µM: 86.4%
[30]
  growth, % of control at 1 µM: 46.2%
[31]
  growth, % of control at 10 µM: -12.9%
[32]
  growth, % of control at 10 µM: 24.8%
[33]
  growth, % of control at 1 µM: 8%
[34]
  growth, % of control at 3 µM: -19.7%
[35]
  growth, % of control at 0.1 µM: 92.4%
[36]
  growth, % of control at 0.1 µM: 84.8%
[37]
  growth, % of control at 0.3 µM: 98.1%

## CCCCCCCCCCCCCCCCS(=O)(=O)N(C)CC[N+](C)(C)CC
[1]
  GI50: 1810 nM
[2]
  GI50: 1260 nM
[3]
  Activity: Active
[4]
  GI50: 360 nM
[5]
  GI50: 1750 nM
[6]
  GI50: 540 nM
[7]
  GI50: 570 nM
[8]
  growth, % of control at 10 µM: -18.7%
[9]
  growth, % of control at 1 µM: 30%
[10]
  growth, % of control at 10 µM: 21.5%
[11]
  growth, % of control at 3 µM: 35.2%
[12]
  growth, % of control at 0.1 µM: 96.2%
[13]
  growth, % of control at 0.3 µM: 93.9%
[14]
  growth, % of control at 0.1 µM: 88%
[15]
  growth, % of control at 0.3 µM: 81.3%
[16]
  growth, % of control at 0.3 µM: 98.4%
[17]
  growth, % of control at 10 µM: 13.5%
[18]
  growth, % of control at 0.3 µM: 78.3%
[19]
  growth, % of control at 1 µM: 51.9%
[20]
  growth, % of control at 10 µM: -3.8%
[21]
  growth, % of control at 0.1 µM: 75.8%
[22]
  growth, % of control at 3 µM: 36.5%
[23]
  growth, % of control at 1 µM: 54.1%
[24]
  growth, % of control at 3 µM: 14.2%
[25]
  growth, % of control at 3 µM: 52.7%
[26]
  growth, % of control at 1 µM: 77.8%
[27]
  growth, % of control at 3 µM: 17.2%
[28]
  growth, % of control at 0.1 µM: 91.4%
[29]
  growth, % of control at 0.3 µM: 87.3%
[30]
  growth, % of control at 1 µM: 69.7%
[31]
  growth, % of control at 10 µM: 4%
[32]
  growth, % of control at 10 µM: 26.7%
[33]
  growth, % of control at 1 µM: 84%
[34]
  growth, % of control at 3 µM: 61.6%
[35]
  growth, % of control at 0.1 µM: 101%
[36]
  growth, % of control at 0.1 µM: 80.8%
[37]
  growth, % of control at 0.3 µM: 77.8%

## CCCCCCCCCCCCCCCCS(=O)(=O)NCCC[N+](C)(C)CC
[1]
  GI50: 910 nM
[2]
  GI50: 1200 nM
[3]
  Activity: Active
[4]
  GI50: 320 nM
[5]
  GI50: 1290 nM
[6]
  GI50: 910 nM
[7]
  GI50: 560 nM
[8]
  growth, % of control at 10 µM: -32.4%
[9]
  growth, % of control at 1 µM: 41.8%
[10]
  growth, % of control at 10 µM: -6.7%
[11]
  growth, % of control at 3 µM: 35.3%
[12]
  growth, % of control at 0.1 µM: 87.7%
[13]
  growth, % of control at 0.3 µM: 90.6%
[14]
  growth, % of control at 0.1 µM: 74.4%
[15]
  growth, % of control at 0.3 µM: 73.5%
[16]
  growth, % of control at 0.3 µM: 91.7%
[17]
  growth, % of control at 10 µM: -21.5%
[18]
  growth, % of control at 0.3 µM: 82.9%
[19]
  growth, % of control at 1 µM: 75.5%
[20]
  growth, % of control at 10 µM: 9.2%
[21]
  growth, % of control at 0.1 µM: 72.6%
[22]
  growth, % of control at 3 µM: 39.3%
[23]
  growth, % of control at 1 µM: 56.3%
[24]
  growth, % of control at 3 µM: -11.8%
[25]
  growth, % of control at 3 µM: 48.4%
[26]
  growth, % of control at 1 µM: 76.6%
[27]
  growth, % of control at 3 µM: 7.5%
[28]
  growth, % of control at 0.1 µM: 84.1%
[29]
  growth, % of control at 0.3 µM: 79.7%
[30]
  growth, % of control at 1 µM: 78%
[31]
  growth, % of control at 10 µM: -34.3%
[32]
  growth, % of control at 10 µM: 16.3%
[33]
  growth, % of control at 1 µM: 73.4%
[34]
  growth, % of control at 3 µM: 32.2%
[35]
  growth, % of control at 0.1 µM: 90%
[36]
  growth, % of control at 0.1 µM: 81.3%
[37]
  growth, % of control at 0.3 µM: 75.7%
